Measurements taken from US20240287122A1, “NOVEL GALACTOSIDE INHIBITOR OF GALECTINS” (GALECTO BIOTECH AB, priority 2020, published 2024).

Legend:
Galectin-3 = Galectin-3 (Homo sapiens, UniProt P17931); assay: Fluorescence anisotropy assay, affinity for galectin-3; format: binding; settings: compound as inhibitor of the interaction between galectin and a fluorescein tagged saccharide probe
Protocol: (§1) The affinity of Example 1-43 for galectins were determined by a fluorescence anisotropy assay where the compound was used as an inhibitor of the interaction between galectin and a fluorescein tagged saccharide probe as described Sörme, P., Kahl-Knutsson, B., Huflejt, M., Nilsson, U. J., and Leffler H. (2004) Fluorescence polarization as an analytical tool to evaluate galectin-ligand interactions. Anal. Biochem. 334: 36-47, (Sörme et al., 2004) and Monovalent interactions of Galectin-1 By Salomonsson, Emma; Larumbe, Amaia; Tejler, Johan; Tullberg, Erik; Rydberg, Hanna; Sundin, Anders; Khabut, Areej; Frejd, Torbjomn; Lobsanov, Yuri D.; Rini, James M.; et al, From Biochemistry (2010), 49(44), 9518-9532, (Salomonsson et al., 2010).

Galectin-1 = Galectin-1 (Homo sapiens, UniProt P09382); assay: Fluorescence anisotropy assay, affinity for galectin-1; format: binding; settings: compound as inhibitor of the interaction between galectin and a fluorescein tagged saccharide probe
Sequence of Galectin-1 (P09382 whole entry): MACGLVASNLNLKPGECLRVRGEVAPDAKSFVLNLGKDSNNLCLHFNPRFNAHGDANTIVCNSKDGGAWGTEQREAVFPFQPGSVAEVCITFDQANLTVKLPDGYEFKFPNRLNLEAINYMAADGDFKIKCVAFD
Protocol: as §1

Sequence of Galectin-3 (P17931 whole entry): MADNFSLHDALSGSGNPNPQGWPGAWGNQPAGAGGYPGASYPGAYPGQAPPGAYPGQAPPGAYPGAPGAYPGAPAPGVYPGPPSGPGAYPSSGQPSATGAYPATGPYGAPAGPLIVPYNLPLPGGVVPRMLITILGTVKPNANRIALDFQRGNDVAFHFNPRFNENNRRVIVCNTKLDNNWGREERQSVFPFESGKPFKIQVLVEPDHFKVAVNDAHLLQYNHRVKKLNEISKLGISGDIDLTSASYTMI

SMILES | Kd (Galectin-3) [nM] | Kd (Galectin-1) [nM]
COC1C(n2cc(-n3ccc(Cl)n3)nn2)[C@@H](O)C(CO)O[C@@H]1Sc1cc(Br)cnc1C(=O)N(CC1CCC1)CC1CCC1 (stereo partly drawn) [Example 27, 5-Bromo-2-[N,N-bis(cyclobutylmethyl)carbamoyl]pyridin-3-yl 3-[4-(3-chloro-1H-1,2-pyrazol-1-yl)-1H-1,2,3-triazol-1-yl]-3-deoxy-2-O-methyl-1-thio-α-D-galactopyranoside] | 260 | 380
COC1C(n2cc(-n3ccc(Cl)n3)nn2)[C@@H](O)C(CO)O[C@@H]1Sc1cc(Br)cnc1C(=O)N1CCCC1 (stereo partly drawn) [Example 28, 5-Bromo-2-(pyrrolidine-1-carbonyl)pyridin-3-yl 3-[4-(3-chloro-1H-1,2-pyrazol-1-yl)-1H-1,2,3-triazol-1-yl]-3-deoxy-2-O-methyl-1-thio-α-D-galactopyranoside] | 52 | 69
CCN(CC(F)(F)F)C(=O)c1ncc(Br)cc1S[C@H]1OC(CO)[C@H](O)C(n2cc(-n3ccc(Cl)n3)nn2)C1OC (stereo partly drawn) [Example 29, 5-Bromo-2-[N,N-ethyl-(2,2,2-trifluoroethyl)carbamoyl]pyridin-3-yl 3-[4-(3-chloro-1H-1,2-pyrazol-1-yl)-1H-1,2,3-triazol-1-yl]-3-deoxy-2-O-methyl-1-thio-α-D-galactopyranoside] | 60 | 100
CCN(CC(C)(C)F)C(=O)c1ncc(Br)cc1S[C@H]1OC(CO)[C@H](O)C(n2cc(-n3ccc(Cl)n3)nn2)C1OC (stereo partly drawn) [Example 30, 5-Bromo-2-[N,N-ethyl(2-fluoro-2-methylpropyl)carbamoyl]pyridin-3-yl 3-[4-(3-chloro-1H-1,2-pyrazol-1-yl)-1H-1,2,3-triazol-1-yl]-3-deoxy-2-O-methyl-1-thio-α-D-galactopyranoside] | 62 | 140
COC1C(n2cc(-n3ccc(Cl)n3)nn2)[C@@H](O)C(CO)O[C@@H]1Sc1cc(Br)cnc1C(=O)N(CC(C)C)C(C)C (stereo partly drawn) [Example 32, 5-Bromo-2-(N,N-isobutylisopropylcarbamoyl)pyridin-3-yl 3-[4-(3-chloro-1H-1,2-pyrazol-1-yl)-1H-1,2,3-triazol-1-yl]-3-deoxy-2-O-methyl-1-thio-α-D-galactopyranoside] | 63 | 110
COC1C(n2cc(-n3ccc(Cl)n3)nn2)[C@@H](O)C(CO)O[C@@H]1Sc1cc(Br)cnc1C(=O)N(CC1CC1)OC (stereo partly drawn) [Example 33, 5-Bromo-2-[N,N-(cyclopropylmethyl)methoxycarbamoyl]pyridin-3-yl 3-[4-(3-chloro-1H-1,2-pyrazol-1-yl)-1H-1,2,3-triazol-1-yl]-3-deoxy-2-O-methyl-1-thio-α-D-galactopyranoside] | 68 | 74

Second part, the compound after the results:

Kd (Galectin-3) [nM] | Kd (Galectin-1) [nM] | SMILES
75 | 140 | CCN(CC1CCC1)C(=O)c1ncc(Br)cc1S[C@H]1OC(CO)[C@H](O)C(n2cc(-n3ccc(Cl)n3)nn2)C1OC (stereo partly drawn) [Example 25, 5-Bromo-2-[N,N-(cyclobutylmethyl)ethylcarbamoyl}pyridin-3-yl 3-[4-(3-chloro-1H-1,2-pyrazol-1-yl)-1H-1,2,3-triazol-1-yl]-3-deoxy-2-O-methyl-1-thio-α-D-galactopyranoside]
110 | 160 | COC1C(n2cc(-n3ccc(Cl)n3)nn2)[C@@H](O)C(CO)O[C@@H]1Sc1cc(Br)cnc1C(=O)N(CC1CCC1)C(C)C (stereo partly drawn) [Example 26, 5-Bromo-2-[N,N-(cyclobutylmethyl)isopropylcarbamoyl]pyridin-3-yl 3-[4-(3-chloro-1H-1,2-pyrazol-1-yl)-1H-1,2,3-triazol-1-yl]-3-deoxy-2-O-methyl-1-thio-α-D-galactopyranoside]
60 | 72 | COC1C(n2cc(-n3ccc(Cl)n3)nn2)[C@@H](O)C(CO)O[C@@H]1Sc1cc(Br)cnc1C(=O)N(CC1CC1)C(C)C (stereo partly drawn) [Example 31, 5-Bromo-2-[N,N-(cyclopropylmethyl)isopropylcarbamoyl]pyridin-3-yl 3-[4-(3-chloro-1H-1,2-pyrazol-1-yl)-1H-1,2,3-triazol-1-yl]-3-deoxy-2-O-methyl-1-thio-α-D-galactopyranoside]
